Experimental data published in paper PMC6344527, “Toxicity and possible mechanisms of action of honokiol from Magnolia denudata seeds against four mosquito species” (Scientific Reports, 2019).

Tests used:
[1] = system: third-instar Ae. aegypti larvae; experiment: light microscopy analysis of treated larvae; format: in vivo, Aedes aegypti; details: honokiol 6.5 mg/L or magnolol 25 mg/L (LC50), 24 h
Description: At 24 h post-treatment, the untreated and treated larvae were placed on a microscope slide at room temperature for light microscopy. Morphological observations were made with an EZ4 HD stereo microscope (35×) equipped with an Integrated 3.0 Mega-Pixel CMOS camera (Leica Microsystems, Heerbrugg, Switzerland). All experiments were performed in duplicate, with 20 mosquito larvae used in each replicate. More than 10 live larvae from the control and treated groups were randomly collected and used for analysis.

[2] = target: acetylcholinesterase (AChE) from third-instar Ae. aegypti larvae (Aedes aegypti, UniProt A4GND7); experiment: acetylcholinesterase inhibition assay; format: biochemical; details: based on IC50 values
Chain of acetylcholinesterase (AChE) from third-instar Ae. aegypti larvae (A4GND7 37-679): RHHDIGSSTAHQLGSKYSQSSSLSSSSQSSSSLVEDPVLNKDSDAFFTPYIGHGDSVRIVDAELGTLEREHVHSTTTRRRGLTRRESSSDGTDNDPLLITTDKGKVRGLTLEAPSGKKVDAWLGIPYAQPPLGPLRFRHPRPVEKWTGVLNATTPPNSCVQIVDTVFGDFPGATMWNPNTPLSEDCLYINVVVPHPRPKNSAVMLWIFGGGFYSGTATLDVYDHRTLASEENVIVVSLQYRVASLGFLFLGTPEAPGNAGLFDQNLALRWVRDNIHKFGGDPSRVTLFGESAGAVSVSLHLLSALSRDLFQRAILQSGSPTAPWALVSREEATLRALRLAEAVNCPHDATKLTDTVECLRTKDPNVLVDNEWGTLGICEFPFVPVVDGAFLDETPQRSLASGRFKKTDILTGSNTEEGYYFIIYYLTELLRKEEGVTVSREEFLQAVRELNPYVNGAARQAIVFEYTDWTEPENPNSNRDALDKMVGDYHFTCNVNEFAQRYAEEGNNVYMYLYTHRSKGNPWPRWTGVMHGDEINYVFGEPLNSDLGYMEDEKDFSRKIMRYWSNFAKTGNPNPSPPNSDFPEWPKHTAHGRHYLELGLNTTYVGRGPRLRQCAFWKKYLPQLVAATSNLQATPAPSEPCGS
Description: The in vitro AChE inhibitory activity of the test compounds was assessed according to the method of Perumalsamy et al.[42]. Third-instar Ae. aegypti larvae were used in all experiments. Whole bodies of 50 larvae were homogenized in 1 mL of ice-cold 0.1 M phosphate buffer (pH 8.0) using a glass tissue homogenizer. After filtering through cheesecloth, the homogenate was centrifuged at 1,000 × g at 4 °C for 5 min. The supernatant was used directly as the enzyme source for AChE. The protein levels were determined using the Bradford Protein Assay Kit (Bio-Rad Laboratories, Hercules, CA, USA) using BSA as the standard. The reaction mixture consisted of 50 µL of the crude enzyme preparation (4.3–4.8 µg protein equivalents), 150 µL of 0.1 M phosphate buffer, 20 µL of 3 mM DTNB in phosphate buffer (pH 7.0), and 1 µL of various concentrations of each test compound in ethanol. The reaction mixture was incubated at 30 °C for 5 min, and 20 µL of 32 mM ATChI was then added to the mixture. After incubation for 30 min, the reaction was terminated by adding 20 µL of 5 mM eserine salicylate. Absorbance was recorded at 412 nm using a VersaMax microplate reader (Molecular Devices, Sunnyvale, CA, USA). […] The results are expressed as the means ± standard errors (SEs) of triplicate samples from three independent experiments.
The concentration of the test compounds required to produce 50% AChE inhibitory activity (IC50) was determined using the SAS 9.13 program (Cary: SAS Institute; 2014). Concentration-mortality data were subjected to probit analysis using the SAS 9.13 program. […] Statistical analyses were performed using the SAS 9.13 program. Multiple linear regression and correlation analysis were performed using the SPSS 24 program (Armonk: IBM Corp.; 2016).

[3] = system: midgut and anal gills of third-instar Ae. aegypti larvae; experiment: transmission electron microscopy analysis of midgut and anal gills; format: in vivo, Aedes aegypti; details: honokiol 6.5 mg/L or magnolol 25 mg/L (LC50), 24 h
Description: At 24 h post-treatment, the midgut and anal gills of the untreated and treated Ae. aegypti larvae were fixed in Karnovsky’s fixative (2% (v/v) glutaraldehyde and 2% (v/v) paraformaldehyde in 0.05 M sodium cacodylate buffer (pH 7.2)) at 4 °C in darkness for 2–4 h and were washed three times with the same buffer. The specimens were post-fixed with 1% (w/v) osmium tetroxide in the same buffer at 4 °C for 2 h and washed with DW three times. The post-fixed specimens were then dehydrated through a graded series of ethanol with increasing concentrations up to 100% for 15 min. The specimens were further treated with propylene oxide twice each for 15 min as a transitional fluid and embedded in Spurr’s resin[77]. Ultrathin sections (approximately 50 nm thickness) were cut with a UC6 ultramicrotome (Leica Microsystems, Wetzlar, Germany) and stained in 2% aqueous uranyl acetate for 7 min at room temperature as well as with Reynolds lead citrate[78] for 7 min. The sections were mounted on copper grids, and micrographs were obtained from a CM120 transmission electron microscope (Philips Electronics, Amsterdam, Netherlands) at 80 kV. Images were captured using a MegaView III digital camera (Olympus-SIS, Lakewood, CO, USA). Observations were taken of 12 larvae via TEM.

AeCS1 mRNA = experiment: real-time qRT-PCR of target gene expression; format: in vivo, Aedes aegypti; details: compared to control larvae; midgut; honokiol 6.5 mg/L or magnolol 25 mg/L, 24 h
Description: (§1) Real-time qRT-PCR with SYBR Green dye was performed to determine whether honokiol and magnolol treatment affected the expression levels of three target genes, AaAQP4, AaV-type H^+-ATPase and AeCS1, in Ae. aegypti. […] Total RNA was extracted from the anal gills (for AaAQP4 and AaV-type H^+-ATPase) and midgut (for AeCS1) of 50 larvae using an RNeasy Mini Kit (Qiagen, Valencia, CA, USA) according to the manufacturer’s instructions. Residual genomic DNA was removed using RQ1 RNase-Free DNase (Promega, Fitchburg, WI, USA), and 1 μg of total RNA from each sample was used for complementary DNA (cDNA) synthesis with an oligo(dT) primer (Invitrogen, Grand Island, NY, USA) according to the protocol of the SuperScript III Reverse Transcriptase Kit. Real-time qRT-PCR was performed in 96-well plates using the StepOne Plus Real-Time PCR System (Applied Biosystems, Foster, CA, USA). Each reaction mixture consisted of 10 μL of the SYBR Green PCR Master Mix Kit (Applied Biosystems, Warrington, Cheshire, UK), 2 μL of the forward and reverse primers (10 pmol each), 1 μL of cDNA (25 ng) and diethylpyrocarbonate-treated water for a final volume of 20 μL. The oligonucleotide PCR primer pairs are listed in Table 9 and were purchased from Cosmo Genetech (Seoul). The cycling program included an initial hold at 95 °C for 5 min, followed by 35 cycles at 95 °C for 30 s, at 58 °C for 30 s, at 72 °C for 1 min, and an extension at 72 °C for 5 min using an Applied Bioscience Thermal Cycler. The mRNA expression levels of the target genes were normalized to the mRNA expression level of the housekeeping gene Aarps7 and analyzed by the 2^−ΔΔCT method using the Applied Biosystems StepOne Software v2.1 and DataAssist Software. The results are expressed as the means ± SEs of duplicate samples from three independent experiments.

AaV-type H^+-ATPase mRNA = experiment: real-time qRT-PCR of target gene expression; format: in vivo, Aedes aegypti; details: fold higher than the control group; anal gills; honokiol 6.5 mg/L or magnolol 25 mg/L, 24 h
Description: as §1

AaAQP4 mRNA = experiment: real-time qRT-PCR of target gene expression; format: in vivo, Aedes aegypti; details: fold higher than the control group; anal gills; honokiol 6.5 mg/L or magnolol 25 mg/L, 24 h
Description: as §1

SMILES	anal gill region (light microscopy) [1]	morphology of the whole body (light microscopy) [1]	AChE inhibitory activity (in words) [2]	histopathological effects on anal gills (TEM) [3]	histopathological effects on midgut (TEM) [3]	AeCS1 mRNA levels (AeCS1 mRNA)	AaV-type H^+-ATPase mRNA expression levels (AaV-type H^+-ATPase mRNA)	AaAQP4 mRNA expression levels (AaAQP4 mRNA)
C=CCc1ccc(O)c(-c2ccc(O)c(CC=C)c2)c1 [Honokiol, 2-(4-hydroxy-3-prop-2-enyl-phenyl)-4-prop-2-enyl-phenol]	the anal gill from one side was swollen and reduced from its normal length, and the other one was completely damaged	severely damaged, with an indistinct appearance of the thorax, midgut, and abdominal regions	moderately	cytoplasmic disruption with damaged anal gill cells	devastated cellular material and extruded masses in the cytoplasm	82%	approximately 16 fold	approximately 18 fold
C=CCc1ccc(O)c(-c2cc(CC=C)ccc2O)c1 [Magnolol, magnolol]	completely damaged outer cuticle membranes with undistinguishable anal gills with no internal body fluid	shrunken body with no distinct abdominal segments	strongly	damaged outer membranes of thick cuticles, which led to internal cytoplasmic destruction	complete disappearance of nuclei as well as cytoplasmic contents	up to 503%	~14 fold	did not affect
